Assay results taken from patent publication US5231107A, “Derivatives of the oxime of 1,2,5,6-tetrahydropyridine 3-carboxaldehyde, the process for their preparation, their use as medicaments and the compositions containing them” (priority 1987, dated 1993).
Like-named read-outs stand apart in the source and are kept apart here.

Assays:
Hypothermic activity = assay type: in vivo, male mice (CD1 Charles Rivers); details: Mus musculus, read-out: Effective dose (-1° C.)
Procedure: The test is carried out on male mice (CD1 Charles Rivers) weighing 25-30 g, which have fasted for 6 hours.
The temperature of the body is noted by means of a thermocouple inserted about 1.5 cm in the rectum and connected to an electric temperature recorder.
The products are administered by oral or sub-cutaneous route and the temperatures are noted at the instant 0 and at 30 minutes, 1 hour, 2 hours and 2-and-a-half hours after treatment.
The degree of hypothermia is evaluated as the difference between the treated animals and the controls, and the dose necessary to reduce the body temperature by 1° C. is noted.

[1] = intravenous route; cited from earlier work
in vivo = experiment: in vivo; parameters: species or system male mice (CD1 Charles Rivers); details: oral route; male CD1 mice; method of Miller and Tainter
Procedure: The test is carried out on male mice (CD1 Charles Rivers) weighing 25 to 30 g, which have fasted for 6 hours. The product dissolved at 5% in methocel is administered by oral route by means of an oesophage probe.
Control animals receive only the excipient.
After treatment, the animals are placed separately in cages of which the base is covered with blotting paper, and they are put under observation for 30, 60, 120 and 180 minutes.
The sheets of absorbent paper are changed after each observation.
The consistency of the feces is evaluated according to the method of Randall and Baruth (Arch. Int. Pharmacodyn. 220, 94, 1976) according to the following scale of values.
1: feces slightly soft, with or without a damp halo,
2: feces slightly soft, with a well-defined circle of humidity,
3: feces soft with a large circle of humidity,
4: feces without consistency with a very large circle of humidity.
For each product, the dose is noted which causes diarrhoea in 50% of the animals according to the method of Miller and Tainter (Proc. Soc. Exp. Biol. Med., 57, 261, 1944).

[2] = test system: ileum isolated from guinea-pig; experiment: Test of ileum isolated from guinea-pig; details: Cavia porcellus, agonist activity, Tyrode solution, 37° C., read-out: pD2 (negative logarithm of the dose which produces 50% of the maximum effect) (converted)
Procedure: Pieces of ileum are removed from guinea-pigs killed by decapitation. The isolated ileum is placed in 10 cm^3 of Tyrode solution at 37° C. and aerated with a mixture of oxygen (95%) and carbon dioxide gas (5%). The contractions due to the products are registered by means of a detector connected to a polygraph. […].
The possible antagonist activity of the products is tested vis-a-vis acetylcholine.
The agonist activity is expressed in pD2 (negative logarithm of the dose which produces 50% of the maximum effect).
The antagonist activity is expressed in DE50 (dose reducing by 50% the maximum response induced by acetylcholine).

[3] = test system: central cholinergic system; details: in vivo; cited from earlier work

## COC(=O)C1=CCCN(C)C1 [Arecoline, arecoline, reference compound]
Hypothermic activity; oral route (O.R.)
  ED (-1 C): 194 mg/kg
Hypothermic activity; sub-cutaneous route (SC.R)
  ED (-1 C): 3 mg/kg
[1]
  effect on patients having a memory defect: positive effect
In vivo
  DE50 (dose which causes diarrhoea in 50% of the animals): 35 mg/kg
[2]
  EC50: 331 nM
[3]
  duration of action of arecoline: short duration of action
